Experiment: Aerodynamic particle size distribution on Next Generation Impactor (NGI)
Assay type: physicochemical
Details: sample 14 sprayed by soft mist inhaler, NGI at 30 L/min
Experimental: Sample 14 was sprayed by a soft mist inhaler. Aerodynamic particle size distribution of droplets of sample 14 was measured on a Next Generation Impactor (NGI). Next Generation Impactor operated at a flow rate of 30 L/min was used for determination of particle size distribution. For each of the impactor experiments, the impactor collection stages were coated with a silicone oil. The particle size distribution is expressed in terms of mass median aerodynamic diameter (MMAD) and Geometric Standard Deviation (GSD).

O=C(O[C@H]1C[N+]2(CCCOc3ccccc3)CCC1CC2)C(O)(c1cccs1)c1cccs1.[Br-] [Aclidinium bromide, 3(R)-(2-hydroxy-2,2-dithien-2-ylacetoxy)-1-(3-phenoxypropyl)-1-azoniabicy-clo[2.2.2]octane bromide]
MMAD (mass median aerodynamic diameter): 4.49 μm
